ChEMBL document CHEMBL5360558, “Molecular design, synthesis and anticancer activity of new thiopyrano[2,3-d]thiazoles based on 5-hydroxy-1,4-naphthoquinone (juglone)” (Eur J Med Chem, 2023)
Calls of active or inactive are those of the source. No cut-off for these calls is given here.

Columns and labels:
SF-295 = assay: Growth inhibition against human SF-295 cells assessed as total growth inhibitory concentration incubated for 48 hrs by sulforhodamine B spectrophotometric assay; assay type: functional
UACC-62 = assay: Growth inhibition of human UACC-62 cells incubated for 48 hrs by sulforhodamine B spectrophotometric assay; assay type: functional
PC-3 [1] = assay: Growth inhibition against human PC-3 cells assessed as total growth inhibitory concentration incubated for 48 hrs by sulforhodamine B spectrophotometric assay; assay type: functional
HT-29 [2] = assay: Growth inhibition against human HT-29 cells assessed as total growth inhibitory concentration incubated for 48 hrs by sulforhodamine B spectrophotometric assay; assay type: functional
MDA-MB-231 [3] = assay: Induction of apoptosis in human MDA-MB-231 cells assessed as increase in caspase 3/7 activity at 10 uM incubated for 24 hrs by flow cytometry analysis; assay type: functional
PC-3 [4] = assay: Growth inhibition of human PC-3 cells incubated for 48 hrs by sulforhodamine B spectrophotometric assay; assay type: functional
786-0 [5] = assay: Growth inhibition against human 786-0 cells assessed as total growth inhibitory concentration incubated for 48 hrs by sulforhodamine B spectrophotometric assay; assay type: functional
HT-29 [6] = assay: Growth inhibition against human HT-29 cells assessed as lethal concentration incubated for 48 hrs by sulforhodamine B spectrophotometric assay; assay type: functional; conditions: read-out: LC50 (the source's name)
EKVX = assay: Growth inhibition of human EKVX cells incubated for 48 hrs by sulforhodamine B spectrophotometric assay; assay type: functional
MDA-MB-231 [7] = assay: Induction of apoptosis in human MDA-MB-231 cells assessed as increase in caspase-8 level at 5 uM incubated for 24 hrs by flow cytometry analysis; assay type: functional
A549 = assay: Growth inhibition against human A549 cells assessed as lethal concentration incubated for 48 hrs by sulforhodamine B spectrophotometric assay; assay type: functional; conditions: read-out: LC50 (the source's name)
ACHN = assay: Growth inhibition against human ACHN cells assessed as lethal concentration incubated for 48 hrs by sulforhodamine B spectrophotometric assay; assay type: functional; conditions: read-out: LC50 (the source's name)
SNB-19 [8] = assay: Growth inhibition of human SNB-19 cells incubated for 48 hrs by sulforhodamine B spectrophotometric assay; assay type: functional
OVCAR-4 [9] = assay: Growth inhibition against human OVCAR-4 cells assessed as lethal concentration incubated for 48 hrs by sulforhodamine B spectrophotometric assay; assay type: functional; conditions: read-out: LC50 (the source's name)
SNB-75 = assay: Growth inhibition of human SNB-75 cells incubated for 48 hrs by sulforhodamine B spectrophotometric assay; assay type: functional
NCI/ADR-RES [10] = assay: Growth inhibition against human NCI-ADR-RES cells assessed as total growth inhibitory concentration incubated for 48 hrs by sulforhodamine B spectrophotometric assay; assay type: functional
CCRF-CEM [11] = assay: Induction of cell cycle arrest in human CCRF-CEM cells assessed as accumulation of cells at sub-G1 phase at 20.7 uM incubated for 24 hrs by propidium iodide staining based flow cytometry analysis (reference value: 2.36 +/- 0.049%); assay type: functional
SK-MEL-5 = assay: Growth inhibition against human SK-MEL-5 cells assessed as lethal concentration incubated for 48 hrs by sulforhodamine B spectrophotometric assay; assay type: functional; conditions: read-out: LC50 (the source's name)
CCRF-CEM [12] = assay: Induction of cell cycle arrest in human CCRF-CEM cells assessed as accumulation of cells at S phase at 20.7 uM incubated for 24 hrs by propidium iodide staining based flow cytometry analysis (reference value: 41.09 +/- 0.5%); assay type: functional
Hs-578T = assay: Growth inhibition of human Hs-578T cells incubated for 48 hrs by sulforhodamine B spectrophotometric assay; assay type: functional
U-251 = assay: Growth inhibition of human U-251 cells incubated for 48 hrs by sulforhodamine B spectrophotometric assay; assay type: functional
[13] = Acute toxicity in C57BL/6 mouse assessed as change in red blood cells at 20 mg/kg,ip administration observed after 22 days; assay type: organism-based; conditions: in vivo, 528 h, time 22 day
CCRF-CEM [14] = assay: Induction of cell cycle arrest in human CCRF-CEM cells assessed as accumulation of cells at G2/M phase at 20.7 uM incubated for 24 hrs by propidium iodide staining based flow cytometry analysis (reference value: 20.24 +/- 0.25%); assay type: functional
HL-60 = assay: Growth inhibition against human HL-60 cells assessed as total growth inhibitory concentration incubated for 48 hrs by sulforhodamine B spectrophotometric assay; assay type: functional
OVCAR-4 [15] = assay: Growth inhibition of human OVCAR-4 cells incubated for 48 hrs by sulforhodamine B spectrophotometric assay; assay type: functional
M14 [16] = assay: Growth inhibition against human M14 cells assessed as total growth inhibitory concentration incubated for 48 hrs by sulforhodamine B spectrophotometric assay; assay type: functional
SNB-19 [17] = assay: Growth inhibition against human SNB-19 cells assessed as total growth inhibitory concentration incubated for 48 hrs by sulforhodamine B spectrophotometric assay; assay type: functional
SK-OV-3 [18] = assay: Growth inhibition against human SK-OV-3 cells assessed as lethal concentration incubated for 48 hrs by sulforhodamine B spectrophotometric assay; assay type: functional; conditions: read-out: LC50 (the source's name)
DU-145 = assay: Growth inhibition of human DU-145 cells incubated for 48 hrs by sulforhodamine B spectrophotometric assay; assay type: functional
SK-OV-3 [19] = assay: Growth inhibition of human SK-OV-3 cells incubated for 48 hrs by sulforhodamine B spectrophotometric assay; assay type: functional
NCI/ADR-RES [20] = assay: Growth inhibition of human NCI/ADR-RES cells incubated for 48 hrs by sulforhodamine B spectrophotometric assay; assay type: functional
NCI-H460 = assay: Growth inhibition against human NCI-H460 cells assessed as lethal concentration incubated for 48 hrs by sulforhodamine B spectrophotometric assay; assay type: functional; conditions: read-out: LC50 (the source's name)
SK-MEL-28 = assay: Growth inhibition against human SK-MEL-28 cells assessed as lethal concentration incubated for 48 hrs by sulforhodamine B spectrophotometric assay; assay type: functional; conditions: read-out: LC50 (the source's name)
786-0 [21] = assay: Growth inhibition against human 786-0 cells assessed as lethal concentration incubated for 48 hrs by sulforhodamine B spectrophotometric assay; assay type: functional; conditions: read-out: LC50 (the source's name)
T47D = assay: Growth inhibition of human T47D cells incubated for 48 hrs by sulforhodamine B spectrophotometric assay; assay type: functional
KB 3-1 [22] = assay: Induction of apoptosis in human KB 3-1 cells assessed as increase in calnexin protein expression at 0.5 to 5 uM incubated for 3 hrs by Western blotting assay; assay type: functional, cell-based; conditions: dose 0.5-5 µM
MCF7 = assay: Cytotoxicity against human MCF7 cells assessed as cell growth inhibition incubated for 72 hrs by MTT assay; assay type: functional, cell-based; conditions: MCF7, 72 h
M14 [23] = assay: Growth inhibition of human M14 cells incubated for 48 hrs by sulforhodamine B spectrophotometric assay; assay type: functional
UO-31 = assay: Growth inhibition against human UO-31 cells assessed as lethal concentration incubated for 48 hrs by sulforhodamine B spectrophotometric assay; assay type: functional; conditions: read-out: LC50 (the source's name)
[24] = Acute toxicity in C57BL/6 mouse assessed as ratio of lung weight to body weight at 20 mg/kg,ip administration and observed after 22 days (reference value: 0.8 +/- 0.09); assay type: organism-based; conditions: in vivo, 528 h, time 22 day
KB 3-1 [25] = assay: Induction of cell morphological changes in human KB 3-1 cells at 1 uM incubated for 24 hrs by Hoechst-33342 staining based fluorescent microscopy analysis; assay type: functional
A498 = assay: Growth inhibition against human A498 cells assessed as lethal concentration incubated for 48 hrs by sulforhodamine B spectrophotometric assay; assay type: functional; conditions: read-out: LC50 (the source's name)
CCRF-CEM [26] = assay: Induction of cell cycle arrest in human CCRF-CEM cells assessed as accumulation of cells at higher G2/M phase at 20.7 uM incubated for 24 hrs by propidium iodide staining based flow cytometry analysis (reference value: 10.09 +/- 0.14%); assay type: functional
SF-539 = assay: Growth inhibition of human SF-539 cells incubated for 48 hrs by sulforhodamine B spectrophotometric assay; assay type: functional

Structure (SMILES): O=C1C2=C(C(=O)c3c(O)cccc31)C(c1ccco1)c1sc(=O)[nH]c1S2 (centres undefined)
- TGI (SF-295): 3.59 µM
- GI50 (UACC-62): 1.76 µM
- TGI (PC-3 [1]): 21.6 µM
- TGI (HT-29 [2]): 9.25 µM
- Activity (MDA-MB-231 [3]): 20.6%
- GI50 (PC-3 [4]): 2.75 µM
- TGI (786-0 [5]): 24.2 µM
- CC50 (HT-29 [6]): > 100 µM
- GI50 (EKVX): 6.75 µM
- Activity (MDA-MB-231 [7]): 19.5%
- CC50 (A549): 7.38 µM
- CC50 (ACHN): 40.1 µM
- GI50 (SNB-19 [8]): 2.6 µM
- CC50 (OVCAR-4 [9]): 8.71 µM
- GI50 (SNB-75): 3.17 µM
- TGI (NCI/ADR-RES [10]): 12.3 µM
- Activity (CCRF-CEM [11]): 5.8%
- CC50 (SK-MEL-5): 5.68 µM
- Activity (CCRF-CEM [12]): 42.33%
- GI50 (Hs-578T): 2.2 µM
- GI50 (U-251): 3.07 µM
- Activity [13]: Non-Toxic
- Activity (CCRF-CEM [14]): 22.09%
- TGI (HL-60): 6.09 µM
- GI50 (OVCAR-4 [15]): 1.79 µM
- TGI (M14 [16]): 2.37 µM
- TGI (SNB-19 [17]): 7.33 µM
- CC50 (SK-OV-3 [18]): 56.5 µM
- GI50 (DU-145): 1.55 µM
- GI50 (SK-OV-3 [19]): 15.5 µM
- GI50 (NCI/ADR-RES [20]): 3.02 µM
- CC50 (NCI-H460): 7.84 µM
- CC50 (SK-MEL-28): 7.42 µM
- CC50 (786-0 [21]): 71.2 µM
- GI50 (T47D): 2.87 µM
- Activity (KB 3-1 [22]): inactive
- IC50 (MCF7): 3.08 µM
- GI50 (M14 [23]): 1.06 µM
- CC50 (UO-31): 36.7 µM
- Ratio [24]: 0.82
- Activity (KB 3-1 [25]): Active
- CC50 (A498): 31.6 µM
- Activity (CCRF-CEM [26]): 20.54%
- GI50 (SF-539): 1.93 µM
